What was measured:
IKZF1 (Ikaros) = biological target: T1, IKZF1 (Ikaros) (Homo sapiens, UniProt Q13422); assay: IKZF1 reporter degradation assay (HEK 293T IKZF1-mNeonGreen reporter cell line); type: cell-based; conditions: 24 hours incubation
T1 construct: mScarlet (behind P2A) (C, cleaved yes); expressed in transfected cells
From the text: Polycistronic plasmids were constructed for the mammalian expression of fluorescent reporter fusions of human transcription factors IKZF1 (Ikaros), IKZF2 (Helios), and IKZF3 (Aiolos). The respective protein sequences had their C-terminal end joined to a GGGGS linker repeated three times followed by mNeonGreen, P2A sequence, and mScarlet. The DNA sequences of the open reading frames are as follows:
IKZF1, IKZF2, and IKZF3 constructs were cloned into the UCOE Hygromycin expression vectors (Millipore Sigma). Reporter constructs were transfected using cationic lipid reagents into adherent HEK 293T cells and stable integrants were selected by treatment with 200 μg/mL hygromycin B. Clonal populations were obtained from the population of stable integrants either by limiting dilution or fluorescence activated cell sorting.
The clonal stable cell lines were maintained under constant 200 μg/mL hygromycin B selection while being passaged for use in the degradation assays. […] The fluorescence intensity of the IKZF1/2/3-mNeonGreen (FITC channel) and mScarlet (PE channel) reporters were routinely analyzed by flow cytometry to confirm consistent expression levels between experiments.
The IKZF1/IKZF2/IKZF3 degradation assays were carried out by harvesting the HEK 293T reporter cell lines and resuspending the cells in media formulated for reduced background fluorescence (FluoroBrite; Thermo Fisher). The respective cell lines were seeded at a density of 4000 cells/well into black-walled 384-well optical grade assay tissue culture plates. The cells were incubated overnight at 37° C. to allow for attachment to the assay plate. Dilutions of the compounds were prepared in DMSO from 10 mM compound stocks. The assay plates were treated with appropriate concentrations of the compounds by dispensing the DMSO dilutions in quadruplicate wells with an upper limit of 0.5% final DMSO.
After 24 hours incubation with the compounds, the assay plates were imaged on an ImageXpress Pico microscopy system (cells maintained at 37° C. during imaging) to obtain the fluorescent readouts. The assay plates were imaged in the FITC and Tetramethylrhodamine (TRITC) channels to obtain the mNeonGreen fluorescence intensity (reporter degradation data) and mScarlet fluorescence intensity (for cell segmentation). 293T-IKZF1 and 293T-IKZF3 reporter cell lines were imaged with exposures of 500 milliseconds (ms) for both FITC and TRITC channels, while the 293T-IKZF2 reporter cell line was imaged with exposures of 1000 ms for FITC and 1250 ms for TRITC. The resulting data was analyzed with Cell Reporter Xpress software using the 2-channel cell scoring analysis with a “percent positive” readout. The TRITC channel was selected for the “nuclei” segmentation with a threshold of 20 while the FITC channel was selected for the “Marker 1” segmentation and a threshold of 100 for the IKZF1 and IKZF3 reporter lines. […] The minimum segmentation width was set to 6 micrometers and the maximum segmentation width was set to 15 micrometers for all cell lines. The DC50 calculations were determined by regression to best fit four-parameter logistic curves using GraphPad Prism.

IKZF2 (Helios) [1] = biological target: T2, IKZF2 (Helios) (Homo sapiens, UniProt Q96SW2+Q9UKS7); assay: IKZF2 reporter degradation assay (HEK 293T IKZF2-mNeonGreen reporter cell line); type: cell-based; conditions: HEK-293T, 24 h, 1 μM compound, HEK 293T IKZF2 reporter cells, 24 hours incubation
T2 construct: Leu-Asp junction (codons ctcgac before the linker); mScarlet (behind P2A) (C, cleaved yes); expressed in transfected cells
T2 sequence (Q9UKS7 whole entry): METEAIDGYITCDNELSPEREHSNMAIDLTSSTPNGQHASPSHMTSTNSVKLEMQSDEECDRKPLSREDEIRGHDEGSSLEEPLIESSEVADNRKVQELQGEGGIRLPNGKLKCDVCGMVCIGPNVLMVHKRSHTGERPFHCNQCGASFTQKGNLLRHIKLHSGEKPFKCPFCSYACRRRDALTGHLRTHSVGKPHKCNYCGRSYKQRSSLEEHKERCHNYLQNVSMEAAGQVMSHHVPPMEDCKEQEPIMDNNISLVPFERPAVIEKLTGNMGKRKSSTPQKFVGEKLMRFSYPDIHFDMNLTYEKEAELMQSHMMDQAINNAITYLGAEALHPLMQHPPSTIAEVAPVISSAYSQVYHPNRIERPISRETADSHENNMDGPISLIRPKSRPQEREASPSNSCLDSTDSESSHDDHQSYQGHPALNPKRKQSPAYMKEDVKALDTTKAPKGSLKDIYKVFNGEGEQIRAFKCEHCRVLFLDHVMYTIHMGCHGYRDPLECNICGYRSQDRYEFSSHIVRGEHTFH
T2 sequence (Q96SW2 whole entry): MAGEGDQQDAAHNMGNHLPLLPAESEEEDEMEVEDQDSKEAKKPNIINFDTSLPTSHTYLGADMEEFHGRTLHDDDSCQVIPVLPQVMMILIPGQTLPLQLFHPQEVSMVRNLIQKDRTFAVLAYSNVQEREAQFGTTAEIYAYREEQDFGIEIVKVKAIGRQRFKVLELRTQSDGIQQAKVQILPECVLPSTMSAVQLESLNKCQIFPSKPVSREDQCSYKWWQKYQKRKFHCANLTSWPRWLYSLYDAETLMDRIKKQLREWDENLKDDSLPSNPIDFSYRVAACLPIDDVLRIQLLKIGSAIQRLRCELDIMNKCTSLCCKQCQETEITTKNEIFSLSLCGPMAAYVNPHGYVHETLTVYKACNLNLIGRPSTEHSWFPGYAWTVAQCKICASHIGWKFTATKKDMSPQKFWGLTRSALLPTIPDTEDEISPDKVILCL
T2 sequence (Q16531 whole entry partner): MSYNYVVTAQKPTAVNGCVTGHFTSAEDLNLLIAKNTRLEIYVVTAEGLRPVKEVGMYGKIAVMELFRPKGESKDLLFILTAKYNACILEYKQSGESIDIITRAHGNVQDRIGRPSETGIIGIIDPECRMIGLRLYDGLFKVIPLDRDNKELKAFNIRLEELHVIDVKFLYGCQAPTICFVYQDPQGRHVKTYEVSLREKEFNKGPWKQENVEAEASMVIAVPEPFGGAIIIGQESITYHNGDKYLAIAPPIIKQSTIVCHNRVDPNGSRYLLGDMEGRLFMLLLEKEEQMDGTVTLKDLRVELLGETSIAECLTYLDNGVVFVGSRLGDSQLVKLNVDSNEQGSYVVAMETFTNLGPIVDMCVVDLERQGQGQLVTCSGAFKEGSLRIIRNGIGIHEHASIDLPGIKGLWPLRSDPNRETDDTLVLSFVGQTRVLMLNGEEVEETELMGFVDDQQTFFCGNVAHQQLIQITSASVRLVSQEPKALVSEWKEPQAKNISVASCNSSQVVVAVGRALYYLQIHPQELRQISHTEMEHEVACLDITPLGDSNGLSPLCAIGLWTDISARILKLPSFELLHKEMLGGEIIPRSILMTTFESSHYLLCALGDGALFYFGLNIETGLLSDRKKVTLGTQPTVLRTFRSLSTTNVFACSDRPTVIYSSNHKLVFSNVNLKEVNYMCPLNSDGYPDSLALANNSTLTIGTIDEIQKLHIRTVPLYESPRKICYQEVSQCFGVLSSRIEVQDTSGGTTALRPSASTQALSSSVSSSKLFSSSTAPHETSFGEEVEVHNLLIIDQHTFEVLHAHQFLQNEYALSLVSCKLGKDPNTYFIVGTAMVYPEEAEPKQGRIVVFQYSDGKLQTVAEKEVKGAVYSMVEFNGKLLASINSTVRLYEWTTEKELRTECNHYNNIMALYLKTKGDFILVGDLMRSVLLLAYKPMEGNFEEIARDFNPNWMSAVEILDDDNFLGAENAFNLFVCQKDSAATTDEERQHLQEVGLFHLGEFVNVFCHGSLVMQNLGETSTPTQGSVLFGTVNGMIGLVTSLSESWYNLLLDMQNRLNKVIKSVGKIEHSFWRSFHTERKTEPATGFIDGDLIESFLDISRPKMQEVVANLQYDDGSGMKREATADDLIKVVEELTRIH
In short: (§1)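 Readout: percent of cells positive for the mNeonGreen-tagged IKZF reporter, imaged after 24 h of compound exposure at 37 °C in stable HEK 293T lines. The P2A-linked mScarlet defined the cells. DC50 values came from four-parameter logistic regression.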

IKZF2 (Helios) [2] = biological target: T3, IKZF2 (Helios) (Homo sapiens, UniProt Q9UKS7); assay: as above; type: cell-based; conditions: 24 hours incubation
T3 construct: Leu-Asp junction (codons ctcgac before the linker); mScarlet (behind P2A) (C, cleaved yes); expressed in transfected cells
T3 sequence (Q9UKS7 whole entry): as the sequence (Q9UKS7 whole entry) above
T3 sequence (Q96SW2 whole entry, further chain): as the sequence (Q96SW2 whole entry) above
T3 sequence (Q16531 whole entry partner): as the sequence (Q16531 whole entry partner) above
In short: as §1

IKZF3 (Aiolos) = biological target: T4, IKZF3 (Aiolos) (Homo sapiens, UniProt Q9UKT9); assay: IKZF3 reporter degradation assay (HEK 293T IKZF3-mNeonGreen reporter cell line); type: cell-based; conditions: 24 hours incubation
T4 construct: Leu-Asp junction (codons ctcgac before the linker); mScarlet (behind P2A) (C, cleaved yes); expressed in transfected cells
T4 sequence (Q96SW2 whole entry partner): as the sequence (Q96SW2 whole entry) above
T4 sequence (Q16531 whole entry partner): as the sequence (Q16531 whole entry partner) above
T4 sequence (Q9UKT9 whole entry): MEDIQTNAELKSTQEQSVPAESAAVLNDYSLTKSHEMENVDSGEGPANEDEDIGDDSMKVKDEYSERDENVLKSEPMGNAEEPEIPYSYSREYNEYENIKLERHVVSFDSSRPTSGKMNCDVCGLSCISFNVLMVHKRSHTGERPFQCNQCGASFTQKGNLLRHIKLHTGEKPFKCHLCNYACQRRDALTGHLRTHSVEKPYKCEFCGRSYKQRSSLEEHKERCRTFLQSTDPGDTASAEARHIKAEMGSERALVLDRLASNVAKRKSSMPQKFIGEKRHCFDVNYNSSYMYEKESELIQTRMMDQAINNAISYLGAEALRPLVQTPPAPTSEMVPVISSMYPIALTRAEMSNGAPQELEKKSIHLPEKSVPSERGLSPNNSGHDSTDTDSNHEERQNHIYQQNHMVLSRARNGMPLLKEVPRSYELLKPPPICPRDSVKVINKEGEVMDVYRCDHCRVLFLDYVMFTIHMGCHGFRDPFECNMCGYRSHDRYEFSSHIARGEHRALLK
In short: as §1

[3] = biological target: T5, human E3 ligase component cereblon (CRBN) (Homo sapiens, UniProt Q96SW2); assay: Cereblon (CRBN) target engagement, NanoBRET TE Intracellular E3 Ligase Assay in transfected HEK-293T cells; conditions: read-out: CRBN Binding EC50
T5 construct: host or cells: HEK293T
T5 sequence (Q96SW2 whole entry): as the sequence (Q96SW2 whole entry) above
T5 sequence (Q16531 whole entry partner): as the sequence (Q16531 whole entry partner) above
In short: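 Tracer displacement was read as the 610/450 nm BRET signal after 2 h at 37° C with an 11-point dilution series, typically 10 μM to 100 pM. Live HEK-293T cells expressed NanoLuc fused N-terminal to human CRBN together with DDB1. IC50 was fitted with a four-parameter logistic model.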

[4] = HEK 293T IKZF1-mNeonGreen reporter
[5] = HEK 293T IKZF2-mNeonGreen reporter
[6] = HEK 293T IKZF3-mNeonGreen reporter

T1 sequence (Q96SW2 whole entry partner): as the sequence (Q96SW2 whole entry) above
T1 sequence (Q16531 whole entry partner): as the sequence (Q16531 whole entry partner) above
T1 sequence (Q13422 whole entry): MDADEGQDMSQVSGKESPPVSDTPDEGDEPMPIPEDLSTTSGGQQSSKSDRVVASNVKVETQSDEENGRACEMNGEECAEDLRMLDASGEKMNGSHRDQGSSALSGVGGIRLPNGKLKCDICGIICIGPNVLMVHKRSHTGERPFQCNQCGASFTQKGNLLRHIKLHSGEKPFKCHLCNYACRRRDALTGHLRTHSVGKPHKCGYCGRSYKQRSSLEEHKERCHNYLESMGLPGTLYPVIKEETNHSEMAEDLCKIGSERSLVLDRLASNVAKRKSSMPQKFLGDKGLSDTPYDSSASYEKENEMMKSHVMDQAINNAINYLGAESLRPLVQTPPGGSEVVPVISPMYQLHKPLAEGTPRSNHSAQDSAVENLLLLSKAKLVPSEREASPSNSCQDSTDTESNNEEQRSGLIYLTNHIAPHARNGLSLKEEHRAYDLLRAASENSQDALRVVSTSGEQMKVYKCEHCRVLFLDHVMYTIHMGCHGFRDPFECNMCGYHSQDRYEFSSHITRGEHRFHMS

Structure (SMILES) | DC50 (IKZF1 (Ikaros); HEK 293T IKZF1 reporter cells) [µM] | inhibition at 1 µM (IKZF2 (Helios) [1]) [%] | DC50 (IKZF2 (Helios) [2]; HEK 293T IKZF2 reporter cells) [µM] | DC50 (IKZF3 (Aiolos); HEK 293T IKZF3 reporter cells) [µM] | EC50 [3] [µM] | DC50 (IKZF1 (Ikaros); [4]) [µM] | DC50 (IKZF2 (Helios) [2]; [5]) [µM] | DC50 (IKZF3 (Aiolos); [6]) [µM]
O=C1CCC(N2Cc3cc(OC4CCCCC4N4CC(c5ncccn5)C4)ccc3C2=O)C(=O)N1 (stereo not drawn) [Compound 46-B, 3-(1-oxo-5-((2-(3-(pyrimidin-2-yl)azetidin-1-yl)cyclohexyl)oxy)isoindolin-2-yl)piperidine-2,6-dione] | > 30 | 39 | 0.232 | > 30 |  |  |  | 
O=C1CCC(N2Cc3cc(OC4CCCCC4N4CC(c5ccnc(C(F)(F)F)c5)C4)ccc3C2=O)C(=O)N1 (stereo not drawn) [Compound 1-B, 3-(1-oxo-5-((2-(3-(2-(trifluoromethyl)pyridin-4-yl)azetidin-1-yl)cyclohexyl)oxy)isoindolin-2-yl)piperidine-2,6-dione] | > 30 | 32.1 | 0.525 | > 30 |  |  |  | 
O=C1CCC(N2Cc3cc(OC4CCCCC4N4CC(c5ccncc5)C4)ccc3C2=O)C(=O)N1 (stereo not drawn) [Compound 31-B, 3-(1-oxo-5-((2-(3-(pyridin-4-yl)azetidin-1-yl)cyclohexyl)oxy)isoindolin-2-yl)piperidine-2,6-dione] | > 30 | 74 | 0.0478 | > 30 |  |  |  | 
O=C1CCC(N2Cc3cc(OC4CCCCC4N4CC(c5ncc(Cl)cn5)C4)ccc3C2=O)C(=O)N1 (stereo not drawn) [Compound 26-B, 3-(5-((2-(3-(5-chloropyrimidin-2-yl)azetidin-1-yl)cyclohexyl)oxy)-1-oxoisoindolin-2-yl)piperidine-2,6-dione] | > 30 | 78.4 | 0.525 | > 30 |  |  |  | 
O=C1CCC(N2Cc3cc(OC4CCCCC4N4CC(c5c[nH]c6ccccc56)C4)ccc3C2=O)C(=O)N1 (stereo not drawn) [Compound 61-B, 3-(5-((2-(3-(1H-indol-3-yl)azetidin-1-yl)cyclohexyl)oxy)-1-oxoisoindolin-2-yl)piperidine-2,6-dione] | > 30 | 55.8 | 0.026 | > 30 |  |  |  | 
O=C1CCC(N2Cc3cc(OC4CCCCC4N4CC(c5ncc(F)cn5)C4)ccc3C2=O)C(=O)N1 (stereo not drawn) [Compound 6-B, 3-(5-((2-(3-(5-fluoropyrimidin-2-yl)azetidin-1-yl)cyclohexyl)-oxy)-1-oxoisoindolin-2-yl)piperidine-2,6-dione] | > 30 | 74.9 | 0.0299 | > 30 |  |  |  | 
O=C1CCC(N2Cc3cc(OC4CCCCC4N4CC(c5cnccn5)C4)ccc3C2=O)C(=O)N1 (stereo not drawn) [Compound 2-B, 3-(1-oxo-5-((2-(3-(pyrazin-2-yl)azetidin-1-yl)cyclohexyl)oxy)isoindolin-2-yl)piperidine-2,6-dione] | > 30 | 63.1 | 0.12 | > 30 |  |  |  | 
Cc1cc(C2CN(C3CCCCC3Oc3ccc4c(c3)CN(C3CCC(=O)NC3=O)C4=O)C2)ccn1 (stereo not drawn) [Compound 56-B, 3-(5-((2-(3-(2-methylpyridin-4-yl)azetidin-1-yl)cyclohexyl)oxy)-1-oxoisoindolin-2-yl)piperidine-2,6-dione] | > 30 | 84.8 | 0.0111 | > 30 |  |  |  | 
O=C1CCC(N2Cc3cc(OC4CCCCC4N4CC(c5cccnc5)C4)ccc3C2=O)C(=O)N1 (stereo not drawn) [Compound 36-B, 3-(1-oxo-5-((2-(3-(pyridin-3-yl)azetidin-1-yl)cyclohexyl)oxy)isoindolin-2-yl)piperidine-2,6-dione] | > 30 | 49.9 | 0.188 | > 30 |  |  |  | 
O=C1CCC(N2Cc3cc(O[C@H]4CCCC[C@@H]4N4CC(n5ccnc5)C4)ccc3C2=O)C(=O)N1 (stereo partly drawn) [Compound 176-B, 3-(5-(((1S,2S)-2-(3-(1H-imidazol-1-yl)azetidin-1-yl)cyclohexyl)oxy)-1-oxoisoindolin-2-yl)piperidine-2,6-dione] |  |  |  |  | 0.899 | > 30 | 2.1 | > 30
O=C1CCC(N2Cc3cc(OC4CCCCC4N4CC(c5cnc6ccccc6n5)C4)ccc3C2=O)C(=O)N1 (stereo not drawn) [Compound 21-B, 3-(1-oxo-5-((2-(3-(quinoxalin-2-yl)azetidin-1-yl)cyclohexyl)oxy)isoindolin-2-yl)piperidine-2,6-dione] | > 30 | 72.5 | 0.0382 | > 30 |  |  |  | 
O=C1CCC(N2Cc3cc(O[C@H]4CCCC[C@@H]4N4CC(c5cc(Cl)ccn5)C4)ccc3C2=O)C(=O)N1 (mixture of isomers) [Compound 166-B, Rac-3-(5-(((trans)-2-(3-(4-chloropyridin-2-yl)azetidin-1-yl)cyclohexyl)oxy)-1-oxoisoindolin-2-yl)piperidine-2,6-dione] |  |  |  |  | 0.031 | > 30 | > 30 | > 30
O=C1CCC(N2Cc3cc(O[C@H]4CCCC[C@@H]4N4CC(n5cccn5)C4)ccc3C2=O)C(=O)N1 (stereo partly drawn) [Compound 81-B, 3-(5-(((1S,2S)-2-(3-(1H-pyrazol-1-yl)azetidin-1-yl)cyclohexyl)oxy)-1-oxoisoindolin-2-yl)piperidine-2,6-dione] | > 30 | 78 | 0.0965 | > 30 |  |  |  | 
COc1cc(C2CN(C3CCCCC3Oc3ccc4c(c3)CN(C3CCC(=O)NC3=O)C4=O)C2)ccn1 (stereo not drawn) [Compound 11-B, 3-(5-((2-(3-(2-methoxypyridin-4-yl)azetidin-1-yl)cyclohexyl)oxy)-1-oxoisoindolin-2-yl)piperidine-2,6-dione] | > 30 | 78.2 | 0.0207 | > 30 |  |  |  | 
O=C1CCC(N2Cc3cc(OC4CCCCC4N4CC(c5ccnc6ccccc56)C4)ccc3C2=O)C(=O)N1 (stereo not drawn) [Compound 66-B, 3-(1-oxo-5-((2-(3-(quinolin-4-yl)azetidin-1-yl)cyclohexyl)oxy)isoindolin-2-yl)piperidine-2,6-dione] | > 30 | 86.4 | 0.0132 | > 30 |  |  |  | 
O=C1CCC(N2Cc3cc(O[C@H]4CCCC[C@@H]4N4CC(c5ccc(C(F)(F)F)nc5)C4)ccc3C2=O)C(=O)N1 (mixture of isomers) [Compound 191-B, Rac-3-(1-oxo-5-(((trans)-2-(3-(6-(trifluoromethyl)pyridin-3-yl)azetidin-1-yl)cyclohexyl)oxy)isoindolin-2-yl)piperidine-2,6-dione] |  |  |  |  | 0.031 | > 30 | > 30 | > 30
O=C1CCC(N2Cc3cc(OC4CCCCC4N4CC(c5cccc6[nH]ncc56)C4)ccc3C2=O)C(=O)N1 (stereo not drawn) [Compound 71-B, 3-(5-((2-(3-(1H-indazol-4-yl)azetidin-1-yl)cyclohexyl)oxy)-1-oxoisoindolin-2-yl)piperidine-2,6-dione] | > 30 | 79.3 | 0.0283 | > 30 |  |  |  | 
O=C1CCC(N2Cc3cc(OC4CCCC4N4CC(c5ncc(Cl)cn5)C4)ccc3C2=O)C(=O)N1 (stereo not drawn) [Compound 200-B, 3-(5-((2-(3-(5-chloropyrimidin-2-yl)azetidin-1-yl)cyclopentyl)oxy)-1-oxoisoindolin-2-yl)piperidine-2,6-dione] |  |  |  |  | 0.02 | > 30 | > 30 | > 30

— patent publication US20250100996A1, “HETEROCYCLOALKYL AND HETEROARYL COMPOUNDS AND PHARMACEUTICAL COMPOSITIONS THAT MODULATE IKZF2” (Plexium, Inc., priority 2021, published 2025)
